According to patent publication US5428168A, “Lactol PAF antagonists” (British Biotech Pharmaceuticals Limited, priority 1990, dated 1995):

Tests used:
[1] = tested on: PAF-induced hypotension in the rat; test: Reversal of PAF-induced hypotension in anaesthetised rats; format: in vivo, rat (male Sprague-Dawley); details: iv, i.v. bolus, PAF 100 ng/kg/min i.v., straight line interpolation, read-out: ED50 (dose to cause 50% reversal of the hypotensive PAF response)
Method: Male Sprague-Dawley rats (300-400 g) were anaesthetised with a mixture of sodium pentobarbitone, 22.5 mg·kg^-1 and thiopental 62.5 mg·kg^-1. Through a midline incision in the neck, the trachea was cannulated and the animals breathed spontaneously. A carotid artery was cannulated for the measurement of blood pressure and this signal was used to trigger a rate meter to measure heart rate. Both jugular veins were cannulated: one for the infusion of PAF and the other for the bolus administration of test compounds.
PAF, 100 ng·kg^-1 .min^-1 was infused i.v. until a sustained fall in mean blood pressure of 50 mmHg was achieved. […] The peak of this reversal was measured and the dose to cause a 50% reversal of the hypotensive PAF response (ED50) calculated by straight line interpolation and the results are presented in Table 2.

[2] = tested on: endotoxin induced hypotension in the rat; test: Reversal of endotoxin induced hypotension in anaesthetised rats; format: in vivo; details: iv, i.v. bolus, E. coli endotoxin 0111:B4, straight line interpolation, read-out: ED50 (dose resulting in 50% reversal of endotoxin induced hypotension)
Method: Rats were anaesthetised with a mixture of sodium pentobarbitone, 22.5 mg·kg^-1, and thiopental, 62.5 mg·kg^-1. The animals breathed spontaneously, air enriched with oxygen, and a carotid artery was cannulated for the measurement of blood pressure and heart rate. […] Test compounds were administered i.v. via the other jugular vein as a bolus.

[3] = tested on: PAF-induced bronchoconstriction in the guinea pig; test: Reversal of PAF-induced bronchoconstriction in anaesthetised guinea-pigs (modified Konzett-Rossler); format: in vivo, guinea-pig (male Dunkin-Hartley); details: Cavia porcellus, iv, PAF 40 ng/kg/min i.v., read-out: ED50 (dose resulting in 50% reversal of PAF-induced bronchoconstriction)
Method: The inhibition of PAF induced bronchoconstriction was measured in anaesthetised artificially ventilated guinea-pigs (450-500 g) using a modified version of the Konzett-Rossler technique (Konzett M and Rossler R, Naunym-Schmiedeb. Arch. Exp. Pathol. Pharmakol., 1940, 197, 71). Male Dunkin-Hartley guinea-pigs were anaesthetised with urethane, 1.6 g·kg^-1. Through a midline neck incision, the trachea was cannulated and the animal ventilated with a constant tidal volume set between 5 and 15 ml, to give a tracheal inflation pressure of 15 mmHg at a rate of 40 per minute. A carotid artery was cannulated for the measurement of blood pressure and heart rate and both jugular veins were cannulated, one for the infusion of PAF and the other for the administration of test compounds. PAF, 40 ng·kg^-1 ·min^-1, was infused i.v. to produced a 100% increase in tracheal inflation pressure, and bronchoconstrictor effects were determined.

PAF receptor = molecular target: T1, PAF receptor (Homo sapiens, UniProt P25105); test: Inhibition of [3H]-PAF receptor binding to human platelet plasma membrane (isotopic labelling and filtration); details: human platelet membranes, 0.5 nM [3H]-PAF, 0° C., 1 hour
T1 construct: Platelet concentrates were obtained from a hospital blood bank; from tissue; host or cells: human platelets (plasma membrane fraction of lysed platelets from hospital blood bank concentrates)
T1 sequence (P25105 whole entry): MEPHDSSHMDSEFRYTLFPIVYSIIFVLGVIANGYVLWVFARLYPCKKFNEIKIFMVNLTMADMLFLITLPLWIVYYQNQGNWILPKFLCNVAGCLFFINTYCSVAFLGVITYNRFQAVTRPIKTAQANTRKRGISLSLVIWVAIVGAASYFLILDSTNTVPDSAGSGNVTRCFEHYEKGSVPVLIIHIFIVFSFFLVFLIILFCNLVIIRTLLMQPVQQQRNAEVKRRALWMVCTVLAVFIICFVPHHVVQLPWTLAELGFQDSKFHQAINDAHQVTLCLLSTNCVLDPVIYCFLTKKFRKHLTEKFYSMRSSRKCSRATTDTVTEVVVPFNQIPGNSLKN
Method: Compounds of general formula I inhibit PAF-induced functions in both the cellular and tissue levels by changing the PAF binding to its specific receptor site. The ability of compounds of general formula I to inhibit the binding of PAF to its specific receptor binding site on human platelet plasma membranes was measured according to the pharmacological example. […] Platelet concentrates were obtained from a hospital blood bank. These platelet concentrates (500-2500 ml.) were centrifuged at 800 rpm for 10 minutes in a SORVALL RC3B centrifuge to remove the red blood cells present. (The word SORVALL is a trade mark.) The supernatant was subsequently centrifuged at 3,000 rpm in a SORVALL RC3B centrifuge to pellet the platelets present. The platelet rich pellets were resuspended in a minimum volume of buffer (150 mM NaCl, 10 mM Tris, 2 mM EDTA, pH 7.5) and layered onto Ficoll-Paque gradients, 9 ml platelet concentrate to 2 ml Ficoll, and centrifuged at 1,900 rpm for 15 minutes in a SORVALL RT6000 centrifuge. This step removes the residual red blood cells and other nonspecific material such as lymphocytes from the preparation. The platelets which form a band between the plasma and the Ficoll were removed, resuspended in the above buffer and centrifuged at 3,000 rpm for 10 minutes in a SORVALL RT6000 centrifuge. The pelleted platelets were resuspended in buffer (10 mM Tris, 5mM MgCl2, 2 mM EDTA, pH 7.0), snap freezed in liquid N2 and allowed to thaw slowly at room temperature in order to lyse the platelets. The latter step was repeated at least 3 times to ensure proper lysis. The lysed platelets were centrifuged at 3,000 rpm for 10 minutes in a SORVALL RT6000 centrifuge and resuspended in buffer. The latter step was repeated twice in order to remove any cytoplasmic proteins which may hydrolyse the […]. The prepared platelet membranes may be stored at -70° C. After thawing the prepared membranes were centrifuged in a SORVALL RT6000 at 3,000 rpm for 10 minutes and resuspended in assay buffer. The assay was conducted by preparing a series of Tris-buffered solutions of the selected antagonist of predetermined concentrations. […] Incubation was initiated by the addition of 100 μg of the isolated membrane fraction to each of the above solutions at 0° C. […] (The word WHATMAN is a trade mark.) The residue in each case was rapidly washed 4 times with 5 ml cold (4° C.) Tris-buffer solution. […] % Inhibition=[(TB-TBA)/SB]x100 where the specific binding SB=TB-NSB […]

| SMILES | ED50 [1] [µg/kg] | ED50 [2] [µg/kg] | ED50 [3] [µg/kg] | IC50 (PAF receptor) [nM] |
| --- | --- | --- | --- | --- |
| COc1ccc([C@H]2CC[C@@H](OCCCc3cccnc3)O2)cc1OC (relative stereo) [Example 1B, cis-O-(3-(3-pyridyl)propyl)-5-(3,4-dimethoxyphenyl)-gamma-butyrolactol ether] | 9 | 18 | 2.1 | – |
| COc1ccc([C@H]2CC[C@H](OCCCn3c(C)nc4cnccc43)O2)cc1OC (relative stereo) [Example 30B, O-(3-(1H-2-Methylimidazo[4,5-c]pyridyl)propyl)-5-(3,4-dimethoxyphenyl)-gamma-butyrolactol ether] | – | 7 | – | 7 |
